Data published in article PMC9959130, “Effects of Side Chain and Peptide Bond Modifications on the Targeting Properties of Stabilized Minigastrin Analogs” (Pharmaceuticals, 2023).
Like-named read-outs stand apart in the source and are kept apart here. One block for each molecule: values may come before it. Where a SMILES comes first, the peptide text is derived from it. [ ]: non-standard residue; d: D form. The star is where a group is joined. DOTA = O=C(O)CN1CCN(CC(=O)O)CCN(CC(=O)*)CCN(CC(=O)O)CC1; NMeNle = CCCC[C@H](NC)C(=O)O

Experiments:
[1] = Metabolic studies in BALB/c mice (intact radiopeptide by radio-HPLC); format: in vivo; settings: i.v., 2 nmol, 10 min p.i., two animals per peptide; for Intact radiopeptide in kidney: kidney homogenate; for Intact radiopeptide in liver: liver homogenate
Experimental: All animal experiments were approved by the Austrian Ministry of Science (BMWF-66.011/0075- WF/V/3b/2016) and performed in accordance with the Austrian Animal Protection Act. Metabolic studies characterizing the stability of selected radioligands against enzymatic degradation were carried out in 7 to 8 week old female BALB/c mice (Charles River, Sulzfeld, Germany). The mice (two animals for each peptide) were intravenously injected into a lateral tail vein with 5–10 MBq of the ^111In-labeled peptide derivatives, corresponding to 2 nmol total peptide. At the time point of 10 min p.i. the animals were euthanatized by cervical dislocation. A sample of urine and blood was immediately collected. Liver and kidneys were dissected, mixed with 20 mM HEPES buffer pH 7.3 (1:1, w/v) and homogenized using an Ultra-Turrax T8 homogenizer (IKA-Werke, Staufen, Germany) for 1 min. All samples taken were analyzed by analytical HPLC using the low-sensitivity loop for urine and the high-sensitivity loop for blood, liver and kidney. Before injection into the HPLC system, all samples except urine were treated with ACN and diluted with water as described for stability studies in human serum. The percentage of intact radiopeptide in the analyzed samples was calculated by integration of the different peaks found in the radiochromatogram using Chromeleon Dionex Software (Version 7.2.9.11323).

[2] = Biodistribution in BALB/c nude mice bearing A431-CCK2R/A431-mock xenografts; format: in vivo; settings: female, athymic BALB/c nude, mouse, iv, 20 pmol, total radioactivity, ~20 pmol, 4 h p.i. (indium-111 or lutetium-177), mean ± SD n = 4; for tissue to tissue ratio at 4 h: BALB/c nude mice; for tissue uptake at 4 h: xenografted BALB/c nude mice, i.v.
Experimental: The overall biodistribution and tumor targeting properties of selected radiolabeled peptides were evaluated in female athymic BALB/c nude mice (Charles River, Sulzfeld, Germany, age of 7 to 9 weeks). After tumor induction with 2 × 10^6 A431-CCK2R or A431-mock cells (subcutaneously injected in 200 μL DMEM into the right and left flank) and a waiting period of 10–14 days (sufficient to achieve tumors of ∼0.25 g), mice were randomly divided into groups of four and treated with a bolus injection of 150 µL of the injectable solution containing the radiolabeled peptide via a lateral tail vein to achieve an injected radioactivity of 150–200 kBq and a total injected peptide amount of ~20 pmol (n = 4 for each radiopeptide). For DOTA-[(N-Me)1Nal^8]MGS5, additional biodistribution studies were performed with gallium-68 (~0.5 MBq, 20 pmol) and lutetium-177 (~0.5 MBq, 20 pmol). The animals were euthanatized by cervical dislocation at 1 h (gallium-68) or 4 h p.i. (indium-111/ lutetium-177). The tumors and other tissues (blood, lung, heart, muscle, spleen, intestine, liver, kidney, stomach, and pancreas) were dissected, weighed, and the radioactivity measured in the γ-counter. The rest of the body and a standard of the solution injected was also measured together with the collected samples. The percentage of injected activity per gram of tissue (% IA/g) and the tumor-to-organ activity ratio of selected tissues were calculated for each mouse and time point studied. Origin software (Microcal Origin 6.1, Northampton, MA, USA) was used for statistical analysis (independent t-test for two populations; significance level p < 0.05).

[3] = In vitro stability in human serum (intact radiopeptide by radio-HPLC); format: in vitro ADME; settings: fresh human serum, 37 °C, n = 2
Experimental: In vitro stability studies were performed in human serum (n = 2). The radiolabeled peptides (1000 pmol/mL) were incubated at 37 °C and a sample of 100 μL was taken at 1, 4, and 24 h after incubation. After the precipitation of proteins with ACN at 1:1.5 (v/v), centrifugation (14,000 rpm, 2 min, centrifuge 5424, Eppendorf AG, Germany) and dilution with water at 1:1 (v/v), an aliquot of 100 μL of this solution was analyzed by HPLC. Radioligand breakdown was monitored and the percentage of intact radiopeptide was calculated using Chromeleon Dionex Software (Version 7.2.9.11323). Additionally, the radiolabeled peptides (1000 pmol/mL) were incubated in PBS (n = 1) at room temperature to confirm the complex stability as a control.

[4] = Binding to serum proteins (incubation in human serum, Sephadex G-50 size exclusion chromatography); format: in vitro ADME; settings: 37 °C
Experimental: Protein binding was determined by incubation of the radiolabeled peptides in human serum at 37 °C (500 pmol/mL, n = 2). For the time points of 1, 4, and 24 h after incubation, samples of 25 µL were subjected to Sephadex G-50 size exclusion chromatography (GE Healthcare Illustra, Little Chalfont, UK). The column and the eluate were measured using the γ-counter and the percentage of protein binding was calculated.

SMILES: CCCC[C@@H](C(=O)N[C@@H](CC(=O)O)C(=O)N[C@@H](Cc1ccc2ccccc2c1)C(N)=O)N(C)C(=O)[C@H](Cc1c[nH]c2ccccc12)NC(=O)CNC(=O)[C@H](Cc1ccc(O)cc1)NC(=O)[C@H](C)NC(=O)[C@@H](CCC(=O)O)NC(=O)CN1CCN(CC(=O)O)CCN(CC(=O)O)CCN(CC(=O)O)CC1 [[^111In]In-DOTA-[2Nal^8]MGS5] [metal not drawn]
Intact radiopeptide in kidney [1]: 24.7 ± 0.3%
Intact radiopeptide in liver [1]: 83.9 ± 0.1%
Intact radiopeptide in blood [1]: 88.4 ± 0.4%
Intact radiopeptide in urine [1]: 28.2 ± 1.0%

SMILES: CCCC[C@@H](C(=O)N[C@@H](CC(=O)O)C(=O)N(C)[C@@H](Cc1cccc2ccccc12)C(N)=O)N(C)C(=O)[C@H](Cc1c[nH]c2ccccc12)NC(=O)CNC(=O)[C@H](Cc1ccc(O)cc1)NC(=O)[C@H](C)NC(=O)[C@@H](CCC(=O)O)NC(=O)CN1CCN(CC(=O)O)CCN(CC(=O)O)CCN(CC(=O)O)CC1 [[^111In]In-DOTA-[(N-Me)1Nal^8]MGS5, metal not drawn]
tissue to tissue ratio at 4 h ([2]; A431-CCK2R xenograft / blood, A431-CCK2R xenograft, read-out: tumor-to-organ ratio: blood): 281 ± 88.5
tissue to tissue ratio at 4 h ([2]; A431-CCK2R xenograft / kidney, A431-CCK2R xenograft, read-out: tumor-to-organ ratio: kidney): 7.55 ± 0.48
tissue to tissue ratio at 4 h ([2]; A431-CCK2R xenograft / stomach, A431-CCK2R xenograft, read-out: tumor-to-organ ratio: stomach): 11.5 ± 1.82
tissue uptake at 4 h ([2]; A431-mock xenograft, read-out: Uptake in A431-mock xenograft): 0.38 ± 0.08 %ID/g
tissue uptake at 4 h ([2]; blood, read-out: Uptake in blood): 0.19 ± 0.07 %ID/g
tissue uptake at 4 h ([2]; heart, read-out: Uptake in heart): 0.14 ± 0.03 %ID/g
tissue uptake at 4 h ([2]; intestine, read-out: Uptake in intestine): 0.81 ± 0.1 %ID/g
tissue uptake at 4 h ([2]; kidneys, read-out: Uptake in kidneys): 6.33 ± 0.89 %ID/g
tissue uptake at 4 h ([2]; liver, read-out: Uptake in liver): 1.39 ± 0.16 %ID/g
tissue uptake at 4 h ([2]; lung, read-out: Uptake in lung): 0.21 ± 0.07 %ID/g
tissue uptake at 4 h ([2]; muscle, read-out: Uptake in muscle): 0.12 ± 0.05 %ID/g
tissue uptake at 4 h ([2]; spleen, read-out: Uptake in spleen): 0.32 ± 0.05 %ID/g
remaining at 4 h, 1000 pmol/mL ([3]; human, radiolabeled peptide, 4 h after incubation): 99.3 ± 0.9%
remaining at 24 h, 1000 pmol/mL ([3]; radiolabeled peptide (111In where no radiometal named), 24 h after incubation): 99.6 ± 0.1%

SMILES: CCCC[C@@H](C(=O)N[C@@H](CC(=O)O)C(=O)N[C@@H](Cc1ccccc1)C(N)=O)N(C)C(=O)[C@H](Cc1c[nH]c2ccccc12)NC(=O)CNC(=O)[C@H](Cc1ccc(O)cc1)NC(=O)[C@H](C)NC(=O)[C@@H](CCC(=O)O)NC(=O)CN1CCN(CC(=O)O)CCN(CC(=O)O)CCN(CC(=O)O)CC1 [[^111In]In-DOTA-[Phe^8]MGS5] [metal not drawn] ({DOTA}-[dE]AYGW[NMeNle]DF-NH2)
Binding to Serum Proteins (%) ([4]; radiolabeled peptide (111In where no radiometal named), 500 pmol/mL, 24 h after incubation, Sephadex G-50, γ-counter, n = 2): 20%

Second part, the molecule after the results:

Intact radiopeptide in kidney [1]: 7.4 ± 8.6%
Intact radiopeptide in liver [1]: 78.1 ± 3.7%
Intact radiopeptide in blood [1]: 71.7 ± 6.2%
Intact radiopeptide in urine [1]: 1.3 ± 0.2%
SMILES: CCCC[C@@H](C(=O)N[C@@H](CC(=O)O)C(=O)N[C@@H](Cc1cccc2ccccc12)C(=O)NC)N(C)C(=O)[C@H](Cc1c[nH]c2ccccc12)NC(=O)CNC(=O)[C@H](Cc1ccc(O)cc1)NC(=O)[C@H](C)NC(=O)[C@@H](CCC(=O)O)NC(=O)CN1CCN(CC(=O)O)CCN(CC(=O)O)CCN(CC(=O)O)CC1 [[^111In]In-DOTA-MGS5[NHCH3]] [metal not drawn]

tissue uptake at 4 h ([2]; A431-CCK2R xenograft, read-out: Uptake in A431-CCK2R xenograft): 35.1 ± 6.32 %ID/g
tissue uptake at 4 h ([2]; stomach, read-out: Uptake in stomach): 2.37 ± 0.33 %ID/g
fraction unbound at 4 h, 500 pmol/mL ([4]; human, radiolabeled peptide, 4 h after incubation, Sephadex G-50, n = 2): 0.746
fraction unbound at 24 h, 500 pmol/mL ([4]; radiolabeled peptide (111In where no radiometal named), 24 h after incubation, Sephadex G-50, γ-counter, n = 2): 0.713
SMILES: CCCC[C@@H](C(=O)N[C@@H](CC(=O)O)C(=O)N(C)[C@@H](Cc1cccc2ccccc12)C(N)=O)N(C)C(=O)[C@H](Cc1c[nH]c2ccccc12)NC(=O)CNC(=O)[C@H](Cc1ccc(O)cc1)NC(=O)[C@H](C)NC(=O)[C@@H](CCC(=O)O)NC(=O)CN1CCN(CC(=O)O)CCN(CC(=O)O)CCN(CC(=O)O)CC1 [[^177Lu]Lu-DOTA-[(N-Me)1Nal^8]MGS5, metal not drawn]
